# Laboratory results as given in patent publication US20110190365A1, “Insecticidal 4-phenyl-1H-pyrazoles” (Bayer Crop Science AG, priority 2008, published 2011).
# Assay: log P by HPLC on a reversed-phase column (C18), EEC Directive 79/831 Annex V.A8
# Type: physicochemical
# Experimental: The stated log P values were determined in accordance with EEC Directive 79/831 Annex V.A8 by HPLC (High Performance Liquid Chromatography) using a reversed-phase column (C18).
# [1] = HPLC, reversed-phase C18, mobile phase with formic acid
# [2] = HCOOH, Table 4, compounds of formula I-A-Q4
Compound,log P (HCOOH) (HCOOH),also measured
Cc1cc(-n2nc(C)c(-c3c(F)cccc3Cl)c2N)ccc1C(=O)NCC(F)(F)C(F)F [I-A-Q2-334],I-A-Q2-334: log P (HCOOH): 2.59,
Cc1cc(-n2nc(C(F)(F)F)c(I)c2N)ccc1C(=O)NCc1ccccn1 [XI-A-095],XI-A-095: log P (HCOOH): 2.03,
Cc1nn(-c2ccc(-n3cncn3)c(C#N)c2)c(N)c1-c1c(F)cccc1Cl [I-A-Q1-051],,log P (HCOOH) [1]: I-A-Q1-051: log P (HCOOH): 2.27
CC(C)(C)NC(=O)c1ccc(-n2nc(C(F)(F)F)c(-c3cc(Cl)cc(Cl)c3)c2N)cc1 [I-A-Q2-146],I-A-Q2-146: log P (HCOOH): 4.54,
Nc1c(-c2ccc(Cl)cc2)c(C2CC2)nn1-c1ccc(Cl)cn1 [I-A-Q4-024],,log P (HCOOH) [2]: I-A-Q4-024: log P (HCOOH): 5.36
N#Cc1cc(-n2nc(C(F)(F)Oc3ccc(Cl)cc3)c(-c3cc(Cl)cc(C(F)(F)F)c3)c2N)ccc1-n1cncn1 [I-A-Q1-071],,log P (HCOOH) [1]: I-A-Q1-071: log P (HCOOH): 4.84
N#Cc1cc(-n2nc(C(F)(F)F)c(-c3ccc(Cl)cc3Cl)c2N)ccc1-n1cncn1 [I-A-Q1-045],,log P (HCOOH) [1]: I-A-Q1-045: log P (HCOOH): 2.64
Cc1cc(-n2nc(C(F)(F)F)c(-c3cc(Cl)cc(Cl)c3)c2N)ccc1C(=O)NC(c1cccc(C(F)(F)F)c1)C(F)(F)F (stereo not drawn) [I-A-Q2-257],I-A-Q2-257: log P (HCOOH): 5.22,
Cc1cc(-n2nc(C)c(-c3ccc(Cl)c(Cl)c3)c2N)ccc1C(=O)NCc1ccccn1 [I-A-Q2-365],I-A-Q2-365: log P (HCOOH): 2.27,
N#Cc1cc(-n2nc(C(F)(F)F)c(-c3cccc(F)c3)c2N)ccc1-n1cncn1 [I-A-Q1-042],,log P (HCOOH) [1]: I-A-Q1-042: log P (HCOOH): 2.84
CCCNC(=O)c1ccc(-n2nc(C(F)(F)F)c(-c3cc(Cl)cc(Cl)c3)c2N)cc1C [I-A-Q2-202],I-A-Q2-202: log P (HCOOH): 4.22,
CCCc1nn(-c2ccc(Cl)cn2)c(N)c1-c1ccc(Cl)cc1 [I-A-Q4-025],,log P (HCOOH) [2]: I-A-Q4-025: log P (HCOOH): 5.51
Cc1cc(-n2nc(C(F)(F)F)c(-c3c(F)cc(F)cc3F)c2N)ccc1C(=O)NCc1ccccn1 [I-A-Q2-350],I-A-Q2-350: log P (HCOOH): 2.34,
CC(C)NC(=O)c1ccc(-n2nc(C(F)(F)F)c(-c3cccc(F)c3)c2N)cc1 [I-A-Q2-181],I-A-Q2-181: log P (HCOOH): 2.98,
CC(NC(=O)c1ccc(-n2nc(C(F)(F)F)c(-c3ccc(Cl)cc3)c2N)cc1)c1ccccn1 (stereo not drawn) [I-A-Q2-165],I-A-Q2-165: log P (HCOOH): 2.72,
CNC(=O)c1ccc(-n2nc(C(C)C)c(-c3ccc(Cl)cc3)c2N)cc1 [I-A-Q2-074],I-A-Q2-074: log P (HCOOH): 2.76,
Cc1cc(C)cc(-c2c(C(F)(F)F)nn(-c3ccc(C(=O)O)cc3)c2N)c1 [I-A-Q4-090],,log P (HCOOH) [2]: I-A-Q4-090: log P (HCOOH): 3.42
Cc1nn(-c2ccc(-n3cncn3)c(C#N)c2)c(N)c1-c1ccc(F)cc1F [I-A-Q1-057],,log P (HCOOH) [1]: I-A-Q1-057: log P (HCOOH): 2.35
Cc1cc(-n2nc(C3CCCO3)c(-c3cc(Cl)cc(C(F)(F)F)c3)c2N)ccc1C(=O)NCC(F)(F)C(F)F (stereo not drawn) [I-A-Q2-290],I-A-Q2-290: log P (HCOOH): 4.00,
Cc1cc(-n2nc(C(F)(F)F)c(-c3cc(Cl)cc(Cl)c3)c2N)ccc1C(=O)NCCc1ccccn1 [I-A-Q2-226],I-A-Q2-226: log P (HCOOH): 2.50,
Cc1cc(-n2nc(C(F)(F)F)cc2N)ccc1C(=O)NCc1ccccn1 [XI-A-089],XI-A-089: log P (HCOOH): 2.45,
COC(=O)c1ccc(-n2nc(C(F)(F)F)c(-c3cc(Cl)cc(Cl)c3)c2N)cc1C(F)(F)F [I-A-Q4-112],,log P (HCOOH) [2]: I-A-Q4-112: log P (HCOOH): 5.21
Nc1c(-c2cc(Cl)cc(C(F)(F)F)c2)c(C(F)(F)F)nn1-c1ccc(Cl)cn1 [I-A-Q4-016],,log P (HCOOH) [2]: I-A-Q4-016: log P (HCOOH): 5.76

Compound,log P (HCOOH) (HCOOH),also measured
Cc1cc(-n2nc(C(F)(F)Oc3ccccc3Cl)c(-c3cc(Cl)cc(C(F)(F)F)c3)c2N)ccc1C(=O)NCC(F)(F)C(F)F [I-A-Q2-298],I-A-Q2-298: log P (HCOOH): 4.64,
Cc1cc(C)cc(-c2c(C(F)(F)F)nn(-c3ccc(-n4cncn4)c(C#N)c3)c2N)c1 [I-A-Q1-038],,log P (HCOOH) [1]: I-A-Q1-038: log P (HCOOH): 3.33
Cc1cc(-n2nc(C(F)(F)F)c(-c3cc(F)c(F)c(F)c3)c2N)ccc1C(=O)NCc1ccccn1 [I-A-Q2-358],I-A-Q2-358: log P (HCOOH): 2.80,
Cc1cc(-n2nc(C(F)(F)F)c(-c3cc(Cl)cc(Cl)c3)c2N)ccc1C(=O)NC1CC1F (stereo not drawn) [I-A-Q2-281],I-A-Q2-281: log P (HCOOH): 3.97,
Cc1cc(-n2nc(C(F)(F)F)c(-c3ccc(Cl)cc3)c2N)ccc1C(=O)NCc1ccccn1 [I-A-Q2-345],I-A-Q2-345: log P (HCOOH): 2.69,
Cc1cc(-n2nc(C(F)(F)F)c(-c3cc(Cl)cc(Cl)c3)c2N)ccc1C(=O)NCc1ccc(C(F)(F)F)nc1 [I-A-Q2-060],I-A-Q2-060: log P (HCOOH): 4.34,
Cc1cc(-n2nc(C(F)(F)c3cccc(C(F)(F)F)c3)c(-c3cc(Cl)cc(C(F)(F)F)c3)c2N)ccc1C(=O)NCC(F)(F)C(F)F [I-A-Q2-286],I-A-Q2-286: log P (HCOOH): 4.89,
Nc1c(-c2cc(Cl)cc(Cl)c2)c(C(F)(F)F)nn1-c1ccc(S(=O)(=O)NC2CC2)c(Br)c1 [I-A-Q4-111],,log P (HCOOH) [2]: I-A-Q4-111: log P (HCOOH): 4.77
Cc1cc(-n2nc(C(F)(F)F)cc2N)ccc1C(=O)NCC(F)(F)C(F)F [XI-A-088],XI-A-088: log P (HCOOH): 2.63,
CSc1c(-c2cc(Cl)cc(C(F)(F)F)c2)c(C(F)(F)F)nn1-c1ccc(C(=O)NC(C)C(F)(F)F)cc1 (stereo not drawn) [I-A-Q2-068],I-A-Q2-068: log P (HCOOH): 5.35,
COC(=O)c1ccc(-n2nc(C(F)(F)F)c(Cl)c2N)cc1C [XI-A-081],XI-A-081: log P (HCOOH): 2.76,
C=CCNC(=O)c1ccc(-n2nc(C(F)(F)F)c(-c3cc(Cl)cc(Cl)c3)c2N)nc1 [I-A-Q2-104],I-A-Q2-104: log P (HCOOH): 4.46,
Nc1c(-c2ccc(Cl)cc2)c(-c2ccccc2)nn1-c1ccc(C(=O)NCc2ncccn2)cc1 [I-A-Q2-076],I-A-Q2-076: log P (HCOOH): 2.89,
COc1ccnc(CNC(=O)c2ccc(-n3nc(C(F)(F)F)c(-c4cc(Cl)cc(Cl)c4)c3N)cc2C)c1 [I-A-Q2-052],I-A-Q2-052: log P (HCOOH): 2.34,
Nc1c(-c2ccc(Br)cc2)c(C(F)(F)F)nn1-c1ccc(C(=O)O)cc1 [I-A-Q4-098],,log P (HCOOH) [2]: I-A-Q4-098: log P (HCOOH): 3.35
Nc1c(-c2cc(Cl)cc(C(F)(F)F)c2)c(C(F)(F)Cl)nn1-c1ccc(Cl)cn1 [I-A-Q4-059],,log P (HCOOH) [2]: I-A-Q4-059: log P (HCOOH): 5.81
Nc1[nH]nc(C(F)(F)F)c1-c1cc(Cl)cc(Cl)c1 [IX-021],,"log P (HCOOH) (HCOOH, compounds of the formula (IX), Table 11): IX-021: log P (HCOOH): 2.91"
Nc1c(-c2cc(Cl)cc(Cl)c2)c(C(F)(F)F)nn1-c1ccc(-n2cncn2)c(C(F)(F)F)c1 [I-A-Q1-068],,log P (HCOOH) [1]: I-A-Q1-068: log P (HCOOH): 4.32
COc1ccc(-c2c(C)nn(-c3ccc(C(=O)NCC(F)(F)C(F)F)c(C)c3)c2N)cc1 [I-A-Q2-324],I-A-Q2-324: log P (HCOOH): 2.30,
CSc1c(-c2ccc(Cl)c(Cl)c2)c(C(F)(F)F)nn1-c1ncc(Cl)cn1 [I-A-Q4-020],,log P (HCOOH) [2]: I-A-Q4-020: log P (HCOOH): 5.22
COc1ccc(-c2c(C)nn(-c3ccc(-n4cncn4)c(C#N)c3)c2N)cc1 [I-A-Q1-058],,log P (HCOOH) [1]: I-A-Q1-058: log P (HCOOH): 2.11
Cc1cc(-n2nc(C(F)(F)F)c(-c3cc(Cl)cc(Cl)c3)c2N)ccc1C(=O)NC(C)c1nccc2ccccc12 (stereo not drawn) [I-A-Q2-256],I-A-Q2-256: log P (HCOOH): 4.64,
